# Assay results reported in US9187467B2, “2-phenyl benzothiazole linked imidazole compounds as potential anticancer agents and process for the preparation thereof” (Council of Scientific and Industrial Research, priority 2012, dated 2015).
# Legend:
# [1] = system: HS 578T; test: SRB anticancer assay, breast; assay type: cell-based, human; design: Log10GI50: unit not given here; conditions: for GI50: Homo sapiens, 48 h; for Log10GI50: present compounds
# [2] = system: OVCAR-4; test: SRB anticancer assay, ovarian; assay type: cell-based, human; conditions: Homo sapiens, OVCAR-4, 48 h
# [3] = system: NCI-H23; test: SRB anticancer assay, non-small lung; assay type: cell-based, human; conditions: for GI50: Homo sapiens, NCI-H23, 48 h; for Log10GI50: NCI-H23, present compounds
# [4] = system: OVCAR-8; test: SRB anticancer assay, ovarian; assay type: cell-based, human; design: Log10GI50: unit not given here; conditions: for GI50: Homo sapiens, OVCAR-8, 48 h; for Log10GI50: OVCAR-8, present compounds
# [5] = system: UACC-257; test: SRB anticancer assay, melanoma; assay type: cell-based, human; conditions: for GI50: Homo sapiens, UACC-257, 48 h; for Log10GI50: UACC-257, present compounds
# [6] = system: SR; test: SRB anticancer assay, leukemia; assay type: cell-based, human; conditions: Homo sapiens, 48 h
# [7] = system: SF-539; test: SRB anticancer assay, CNS; assay type: cell-based, human; design: Log10GI50: unit not given here; conditions: for GI50: Homo sapiens, SF-539, 48 h; for Log10GI50: SF-539, present compounds
# [8] = system: SK-OV-3; test: SRB anticancer assay, ovarian; assay type: cell-based, human; conditions: Homo sapiens, SK-OV-3, 48 h
# [9] = system: TK-10; test: SRB anticancer assay, renal; assay type: cell-based, human; conditions: Homo sapiens, TK-10, 48 h
# [10] = system: K562 (Leukemia) cells; test: Cell cycle distribution by flow cytometry; assay type: cell-based
# Method: (§1) In order to investigate the mechanism underlying the anti-proliferative effect of the compounds the cell cycle distribution was analyzed in K562 (Leukemia) and MCF-7 (Breast carcinoma) cell lines by flow cytometry. Compounds CA-4, 21a, 21d, 4c, 6d, 6e, 6f, 7d, 7h and 7j have shown 1.72%, 14%, 12%, 14%, 12%, 14%, 14%, 16%, 16% &12% in K562 cells and 49.63%, 21%, 20%, 18%, 21%, 21%, 21%, 24%, 23% and 23% in MCF-7 cell line respectively. […] Thus compound 7d was considered for further studies (FIG. 1).
# [11] = system: T-47D; test: SRB anticancer assay, breast; assay type: cell-based; conditions: Homo sapiens, T47D, 48 h
# [12] = system: SN12C; test: SRB anticancer assay, renal; assay type: cell-based, human; design: Log10GI50: unit not given here; conditions: for GI50: Homo sapiens, 48 h; for Log10GI50: present compounds
# [13] = system: IGROV1; test: SRB anticancer assay, ovarian; assay type: cell-based, human; conditions: Homo sapiens, IGROV-1; IGROV1, 48 h
# [14] = system: SF-268; test: SRB anticancer assay, CNS; assay type: cell-based, human; design: Log10GI50: unit not given here; conditions: for GI50: Homo sapiens, SF-268, 48 h; for Log10GI50: SF-268, present compounds
# [15] = system: ACHN; test: SRB anticancer assay, renal; assay type: cell-based, human; design: Log10GI50: unit not given here; conditions: for GI50: Homo sapiens, 48 h; for Log10GI50: present compounds
# [16] = system: PC-3; test: SRB anticancer assay, prostate; assay type: cell-based, human; design: Log10GI50: unit not given here; conditions: for GI50: Homo sapiens, PC-3, 48 h; for Log10GI50: PC-3, present compounds
# [17] = system: MCF7; test: SRB anticancer assay, breast; assay type: cell-based, human; conditions: Homo sapiens, MCF7, 48 h
# [18] = system: SF-295; test: SRB anticancer assay, CNS; assay type: cell-based, human; design: Log10GI50: unit not given here; conditions: for GI50: Homo sapiens, SF-295, 48 h; for Log10GI50: SF-295, present compounds
# [19] = system: SK-MEL-28; test: SRB anticancer assay, melanoma; assay type: cell-based, human; design: Log10GI50: unit not given here; conditions: for GI50: Homo sapiens, SK-MEL-28, 48 h; for Log10GI50: SK-MEL-28, present compounds
# [20] = system: NCI-H522; test: SRB anticancer assay, non-small lung; assay type: cell-based, human; design: Log10GI50: unit not given here; conditions: for GI50: Homo sapiens, NCI-H522, 48 h; for Log10GI50: NCI-H522, present compounds
# [21] = system: A498; test: SRB anticancer assay, renal; assay type: cell-based, human; design: Log10GI50: unit not given here; conditions: for Log10GI50: A498, present compounds; for GI50: Homo sapiens, A498, 48 h
# [22] = system: NCI-H226; test: SRB anticancer assay, non-small lung; assay type: cell-based, human; conditions: Homo sapiens, NCI-H226, 48 h
# [23] = system: LOX IMVI; test: SRB anticancer assay, melanoma; assay type: cell-based, human; design: Log10GI50: unit not given here; conditions: for GI50: Homo sapiens, 48 h; for Log10GI50: present compounds
# [24] = system: OVCAR-3; test: SRB anticancer assay, ovarian; assay type: cell-based, human; design: Log10GI50: unit not given here; conditions: for GI50: Homo sapiens, OVCAR-3, 48 h; for Log10GI50: OVCAR-3, present compounds
# [25] = system: NCI-H322M; test: SRB anticancer assay, non-small lung; assay type: cell-based, human; conditions: Homo sapiens, 48 h
# [26] = system: UACC-62; test: SRB anticancer assay, melanoma; assay type: cell-based, human; conditions: for GI50: Homo sapiens, UACC-62, 48 h; for Log10GI50: UACC-62, present compounds
# [27] = system: KM12; test: SRB anticancer assay, colon; assay type: cell-based, human; conditions: Homo sapiens, KM12, 48 h
# [28] = system: NCI-H460; test: SRB anticancer assay, non-small lung; assay type: cell-based, human; conditions: Homo sapiens, NCI-H460, 48 h
# [29] = system: SK-MEL-5; test: SRB anticancer assay, melanoma; assay type: cell-based, human; conditions: Homo sapiens, SK-MEL-5, 48 h
# [30] = system: NCI/ADR-RES; test: SRB anticancer assay, ovarian; assay type: cell-based, human; design: Log10GI50: unit not given here; conditions: for GI50: Homo sapiens, NCI/ADR-RES, 48 h; for Log10GI50: present compounds
# [31] = system: HT29; test: SRB anticancer assay, colon; assay type: cell-based, human; conditions: Homo sapiens, HT-29; HT29, 48 h
# [32] = system: A549/ATCC; test: SRB anticancer assay, non-small lung; assay type: cell-based, human; design: Log10GI50: unit not given here; conditions: for GI50: Homo sapiens, 48 h; for Log10GI50: present compounds
# [33] = system: MCF-7 (Breast carcinoma) cells; test: Cell cycle distribution by flow cytometry (FACS); assay type: cell-based; conditions: MCF-7 cells, 2 μM, 24h
# Method: FIG. 1 represents FACS analysis of cell cycle distribution of MCF-7 cells after treatment with compounds CA-4, 21a, 21d, 4c, 6d, 6e, 6f, 7d, 7h and 7j at 2 μM concentration for 24h and control cells are the cells treated with DMSO (0.25%).
# as §1
# [34] = NCI/ADR-RES (row head NCI/ADR-)
# [35] = listed as head printed RES (second line of NCI/ADR-RES)
compound,measurement,setting,value
"COc1cc(OC)cc(-c2cncn2-c2ccc(-c3nc4cc(OC)c(OC)c(OC)c4s3)cc2)c1 [Compound 7d, 2-(4-(5-(3,5-Dimethoxyphenyl)-1H-imidazol-1-yl)phenyl)-5,6,7-trimethoxybenzo[d]thiazole]",GI50,[1],6.71 µM
same,Log10GI50,[1],−4.68
same,GI50,[2],6.67 µM
same,GI50,[3],9.56 µM
same,Log10GI50,[3],−5.02 log10(M)
same,GI50,[4],13.4 µM
same,Log10GI50,[4],−4.87
same,GI50,[5],20.5 µM
same,Log10GI50,[5],−4.69 log10(M)
same,GI50,[6],7.14 µM
same,GI50,[7],22 µM
same,Log10GI50,[7],−4.66
same,GI50,[8],49.9 µM
same,GI50,[9],26.4 µM
same,cells in G2/M phase,[10],16%
same,GI50,[11],10.7 µM
same,GI50,[12],31.9 µM
same,Log10GI50,[12],−4.50
same,GI50,[13],9.6 µM
same,GI50,[14],22.1 µM
same,Log10GI50,[14],−4.66
same,GI50,[15],11.5 µM
same,Log10GI50,[15],−4.94
same,GI50,[16],3.17 µM
same,Log10GI50,[16],−5.50
same,GI50,[17],4.02 µM
same,GI50,[18],3.64 µM
same,Log10GI50,[18],−5.44
same,GI50,[19],31.6 µM
same,Log10GI50,[19],−4.50
same,GI50,[20],11.8 µM
same,Log10GI50,[20],−4.93
same,Log10GI50,[21],>−4.0
same,GI50,[21],> 100 µM
same,GI50,[22],21.7 µM
same,GI50,[23],6.93 µM
same,Log10GI50,[23],−5.16
same,GI50,[24],6.07 µM
same,Log10GI50,[24],−5.22
same,GI50,[25],86.5 µM
same,GI50,[26],13.8 µM
same,Log10GI50,[26],−4.86 log10 M
same,GI50,[27],5.54 µM
same,GI50,[28],7.46 µM
same,GI50,[29],2.85 µM
same,GI50,[30],11 µM
same,Log10GI50,[30]; [34],−4.96
same,Log10GI50,[30]; [35],−4.30
same,GI50,[31],8.33 µM
same,GI50,[32],5.59 µM
same,Log10GI50,[32],−5.25
same,cells in G2/M phase,[33],24%
"COc1cc(OC)c2sc(-c3ccc(-n4cncc4-c4ccc(OC)c(OC)c4)cc3)nc2c1 [Compound 6e, 2-(4-(5-(3,4-Dimethoxyphenyl)-1H-imidazol-1-yl)phenyl)-5,7-dimethoxybenzo[d]thiazole]",GI50,[1],9.12 µM
same,GI50,[2],4.21 µM
same,GI50,[3],> 100 µM
same,GI50,[4],21.2 µM
same,GI50,[5],> 100 µM
same,GI50,[6],3.03 µM
same,GI50,[7],> 100 µM
same,GI50,[8],> 100 µM
same,GI50,[9],> 100 µM
same,cells in G2/M phase,[10],14%
same,GI50,[11],4.15 µM
same,GI50,[12],> 100 µM
same,GI50,[13],56.1 µM
same,GI50,[14],9.96 µM
same,GI50,[15],> 100 µM
same,GI50,[16],3.66 µM
same,GI50,[17],5.36 µM
same,GI50,[18],7 µM
same,GI50,[19],> 100 µM
same,GI50,[20],5.26 µM
same,GI50,[21],2.15 µM
same,GI50,[22],6.44 µM
same,GI50,[23],> 100 µM
same,GI50,[24],3.85 µM
same,GI50,[25],> 100 µM
same,GI50,[26],8.14 µM
same,GI50,[27],6.8 µM
same,GI50,[28],6.06 µM
same,GI50,[29],3.61 µM
same,GI50,[30],> 100 µM
same,GI50,[31],7.13 µM
same,GI50,[32],41.8 µM
same,cells in G2/M phase,[33],21%
"COc1ccc(-c2cncn2-c2ccc(-c3nc4cc(OC)c(OC)c(OC)c4s3)cc2)cc1N [Compound 7j, 2-Methoxy-5-(1-(4-(5,6,7-trimethoxybenzo[d]thiazol-2-yl)phenyl)-1H-imidazol-5-yl)benzeneamine]",GI50,[1],6.21 µM
same,Log10GI50,[1],−4.55
same,GI50,[2],6.29 µM
same,GI50,[3],4.76 µM
same,Log10GI50,[3],−5.32 log10(M)
same,GI50,[4],6.19 µM
same,Log10GI50,[4],−5.21
same,GI50,[5],> 100 µM
same,Log10GI50,[5],>−4.0 log10(M)
same,GI50,[6],3.43 µM
same,GI50,[7],> 100 µM
same,Log10GI50,[7],>−4.0
same,GI50,[8],> 100 µM
same,GI50,[9],4.16 µM
same,cells in G2/M phase,[10],12%
same,GI50,[11],8.6 µM
same,GI50,[12],9.44 µM
same,Log10GI50,[12],−5.03
same,GI50,[13],4.9 µM
same,GI50,[14],47 µM
same,Log10GI50,[14],−4.33
same,GI50,[15],5.59 µM
same,Log10GI50,[15],−5.25
same,GI50,[16],2.59 µM
same,Log10GI50,[16],−5.59
same,GI50,[17],4.07 µM
same,GI50,[18],4.44 µM
same,Log10GI50,[18],−5.35
same,GI50,[19],13.7 µM
same,Log10GI50,[19],−4.86
same,GI50,[20],3.37 µM
same,Log10GI50,[20],−5.47
same,Log10GI50,[21],−5.32
same,GI50,[21],4.83 µM
same,GI50,[22],6.7 µM
same,GI50,[23],4.75 µM
same,Log10GI50,[23],−5.32
same,GI50,[24],5.18 µM
same,Log10GI50,[24],−5.29
same,GI50,[25],25.7 µM
same,GI50,[26],> 100 µM
same,Log10GI50,[26],−5.04 log10 M
same,GI50,[27],3.8 µM
same,GI50,[28],4.69 µM
same,GI50,[29],1.73 µM
same,GI50,[30],3.12 µM
same,Log10GI50,[30]; [34],−5.51
same,Log10GI50,[30]; [35],>−4.0
same,GI50,[31],3.87 µM
same,GI50,[32],5.77 µM
same,Log10GI50,[32],−5.24
same,cells in G2/M phase,[33],23%
